Measured values taken from patent US7514094B2, “Pesticidal composition” (Ishihara Sangyo Kaisha, Ltd., priority 2000, dated 2009).

Experiments:
Type in all cases: in vivo
[1] = tested on: Thrips palmi; assay: Insecticidal test of Thrips palmi (test in a vinyl house); details: 288 h
Protocol: Insecticidal test of Thrips palmi (test in a vinyl house)
An agrochemical liquid diluted to a predetermined concentration was applied by a shoulder sprayer on a 6 to 8 foliate eggplant having Thrips palmi parasitic thereon in an amount of 100 l per 10 are. The numbers of the parasitic insects were counted before treatment and 12 days after the treatment, and a Percent Control was calculated in the same manner as in Test Example 1, and the results are shown in the following Table 4.
Also, a theoretical value of the Percent Control […] calculated in accordance with the Colby formula in the same manner as in Test Example 2 are shown in parenthesis in the following Table 4.

[2] = tested on: Thrips palmi; assay: Insecticidal test (2) of Thrips palmi on potted eggplant, spray; details: Compound No. 1 0 ppm, 7 days after treatment
Protocol: Insecticidal test on (2) of Thrips palmi
An agrochemical liquid diluted to a predetermined concentration was applied by a spray gun to a 10 to 12 folite eggplant having Thrips palmi parasitic thereon in a pot so as to make the eggplant fully wet with the agrochemical liquid and the pot was placed in a greenhouse.
The numbers of the parasitic insects were counted […] before treatment and 7 days after the treatment, and a Percent Control was calculated in the same manner as in Test Example 1, and the results are shown in the following Table 2.
Also, a theoretical mortality value (%) was calculated in accordance with the following Colby formula. When value of the Percent Control is higher than the theoretical value of the Percent Control (in accordance with the Colby formula), it is considered that the pesticidal composition of the present invention achieves a synergistic pesticidal effect. The theoretical values of the Percent Control calculated in accordance with the Colby formula are shown in parentheses in the following Table 2. Theoretical value of the Percent Control=100−(X×Y)/100 • X: 100−(Percent Control in case of treating with Compound No. 1 only) • Y: 100−(Percent Control in case of treating with Chlorfluazuron only)

[3] = tested on: Thrips palmi; assay: Insecticidal test (1) of Thrips palmi on potted eggplant, spray; details: Compound No. 1 0 ppm, 3 days after treatment
Protocol: Insecticidal test (1) of Thrips palmi
An agrochemical liquid diluted to a predetermined concentration was applied by a spray gun to a 10 to 12-foliate eggplant having Thrips palmi parasitic thereon in a pot so as to make the eggplant fully wet with the agrochemical liquid and the pot was placed in a greenhouse. The numbers of the parasitic insects were counted before treatment and three days after the treatment, and a Percent Control was calculated in accordance with the following formula and the results are shown in the following Table 1. Percent Control=100−((Ta×Cb)/(Tb×Ca)×100) • Ta: Number of insects per treated plants after treatment • Tb: Number of insects per treated plants before treatment • Ca: Number of insects per untreated plants after treatment • Cb: Number of insects per untreated plants before treatment
Also, a theoretical value of the Percent Control was calculated in accordance with the following Colby formula.
When value of the Percent Control is higher than the theoretical value (%) (in accordance with the Colby formula), it is considered that the pesticidal composition of the present invention achieves a synergistic pesticidal effect. The theoretical values of the Percent Control calculated in accordance with the Colby formula are shown in parentheses in the following Table 1. […]

[4] = tested on: Western Flower Thrips Frankliniella occidentalis; assay: Insecticidal test of Western Flower Thrips on potted eggplant, spray; details: 48 h
Excerpt: Insecticidal test of Western Flower Thrips Frankliniella occidentalis
An agrochemical liquid diluted to a predetermined concentration was applied by a spray gun to a 10 to 12 foliate eggplant having Western Flower Thrips Frankliniella occidentalis parasitic thereon in a pot so as to make the eggplant fully wet with the agrochemical liquid, and the pot was placed in a greenhouse. The numbers of the parasitic insects were counted before treatment and 2 days after the treatment, and a Percent Control was calculated in the same manner as in Test Example 1.
Also, a theoretical value of the Percent Control was calculated in accordance with the Colby formula in the same manner as in Test Example 1 and the results are shown in parenthesis in the following Table 3.

| SMILES | mortality at 25 ppm [1] | Percent Control ([2]; Chlorfluazuron 12.5 ppm) | Percent Control ([2]; Chlorfluazuron 25 ppm) | Percent Control ([3]; Flufenoxuron 12.5 ppm) | Percent Control ([3]; Flufenoxuron 25 ppm) | mortality at 25 ppm [4] |
| --- | --- | --- | --- | --- | --- | --- |
| O=C(NC(=O)c1c(F)cccc1F)Nc1cc(Cl)c(Oc2ncc(C(F)(F)F)cc2Cl)c(Cl)c1 [Chlorfluazuron (E-2), Chlorfluazuron] | 58% | 55% | 52% | – | – | – |
| O=C(NC(=O)c1c(F)cccc1F)Nc1ccc(Oc2ccc(C(F)(F)F)cc2Cl)cc1F [Flufenoxuron (E-4), Flufenoxuron] | – | – | – | 70% | 67% | 31% |
